ChEMBL document CHEMBL1148386, “(2S,1'S,2'R,3'R)-2-(2'-Carboxy-3'-hydroxymethylcyclopropyl) glycine is a highly potent group 2 and 3 metabotropic glutamate receptor agonist with oral activity” (J Med Chem, 2004)
pEC50: −log10 of the molar value.

Legend:
[1] = biological target: Metabotropic glutamate receptor 3 (Rattus norvegicus, UniProt P31422); assay: Metabotropic glutamate receptor 3 agonist activity against forskolin stimulated c-AMP formation in rat non neuronal cells; assay type: functional, cell-based
[2] = biological target: T1, Metabotropic glutamate receptor 7 (Rattus norvegicus, UniProt P35400); assay: Metabotropic glutamate receptor 7 antagonist activity to influence forskolin stimulated c-AMP formation in rat non neuronal cells; assay type: functional, cell-based
T1 sequence (P35400 whole entry): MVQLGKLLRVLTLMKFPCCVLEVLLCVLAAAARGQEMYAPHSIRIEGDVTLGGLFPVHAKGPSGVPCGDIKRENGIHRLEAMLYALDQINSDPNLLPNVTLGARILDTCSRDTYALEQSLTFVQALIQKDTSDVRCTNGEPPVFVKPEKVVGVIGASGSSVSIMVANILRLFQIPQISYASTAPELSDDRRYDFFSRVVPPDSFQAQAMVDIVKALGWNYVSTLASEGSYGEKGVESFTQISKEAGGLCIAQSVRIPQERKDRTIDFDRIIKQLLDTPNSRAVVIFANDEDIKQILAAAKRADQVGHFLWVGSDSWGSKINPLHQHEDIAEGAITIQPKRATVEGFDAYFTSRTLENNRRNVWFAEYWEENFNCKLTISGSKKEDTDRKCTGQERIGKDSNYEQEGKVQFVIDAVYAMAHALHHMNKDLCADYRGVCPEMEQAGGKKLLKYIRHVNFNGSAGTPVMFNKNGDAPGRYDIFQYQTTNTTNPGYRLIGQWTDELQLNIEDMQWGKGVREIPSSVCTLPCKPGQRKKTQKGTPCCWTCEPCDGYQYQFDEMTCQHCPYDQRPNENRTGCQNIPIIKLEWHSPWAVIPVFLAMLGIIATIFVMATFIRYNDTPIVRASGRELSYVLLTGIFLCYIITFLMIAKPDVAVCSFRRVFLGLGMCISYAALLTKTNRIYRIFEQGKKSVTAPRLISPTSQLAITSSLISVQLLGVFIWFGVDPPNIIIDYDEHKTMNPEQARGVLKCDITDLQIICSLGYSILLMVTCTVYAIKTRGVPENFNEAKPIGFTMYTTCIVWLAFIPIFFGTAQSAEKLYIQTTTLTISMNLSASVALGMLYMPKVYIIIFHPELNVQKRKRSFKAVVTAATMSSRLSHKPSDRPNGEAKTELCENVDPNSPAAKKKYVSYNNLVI

[3] = biological target: Metabotropic glutamate receptor 5 (Rattus norvegicus, UniProt P31424); assay: Metabotropic glutamate receptor 5 agonist activity as basal [3H]- IP formation in rat; assay type: functional
Metabotropic glutamate receptor 5, sequence (P31424 whole entry): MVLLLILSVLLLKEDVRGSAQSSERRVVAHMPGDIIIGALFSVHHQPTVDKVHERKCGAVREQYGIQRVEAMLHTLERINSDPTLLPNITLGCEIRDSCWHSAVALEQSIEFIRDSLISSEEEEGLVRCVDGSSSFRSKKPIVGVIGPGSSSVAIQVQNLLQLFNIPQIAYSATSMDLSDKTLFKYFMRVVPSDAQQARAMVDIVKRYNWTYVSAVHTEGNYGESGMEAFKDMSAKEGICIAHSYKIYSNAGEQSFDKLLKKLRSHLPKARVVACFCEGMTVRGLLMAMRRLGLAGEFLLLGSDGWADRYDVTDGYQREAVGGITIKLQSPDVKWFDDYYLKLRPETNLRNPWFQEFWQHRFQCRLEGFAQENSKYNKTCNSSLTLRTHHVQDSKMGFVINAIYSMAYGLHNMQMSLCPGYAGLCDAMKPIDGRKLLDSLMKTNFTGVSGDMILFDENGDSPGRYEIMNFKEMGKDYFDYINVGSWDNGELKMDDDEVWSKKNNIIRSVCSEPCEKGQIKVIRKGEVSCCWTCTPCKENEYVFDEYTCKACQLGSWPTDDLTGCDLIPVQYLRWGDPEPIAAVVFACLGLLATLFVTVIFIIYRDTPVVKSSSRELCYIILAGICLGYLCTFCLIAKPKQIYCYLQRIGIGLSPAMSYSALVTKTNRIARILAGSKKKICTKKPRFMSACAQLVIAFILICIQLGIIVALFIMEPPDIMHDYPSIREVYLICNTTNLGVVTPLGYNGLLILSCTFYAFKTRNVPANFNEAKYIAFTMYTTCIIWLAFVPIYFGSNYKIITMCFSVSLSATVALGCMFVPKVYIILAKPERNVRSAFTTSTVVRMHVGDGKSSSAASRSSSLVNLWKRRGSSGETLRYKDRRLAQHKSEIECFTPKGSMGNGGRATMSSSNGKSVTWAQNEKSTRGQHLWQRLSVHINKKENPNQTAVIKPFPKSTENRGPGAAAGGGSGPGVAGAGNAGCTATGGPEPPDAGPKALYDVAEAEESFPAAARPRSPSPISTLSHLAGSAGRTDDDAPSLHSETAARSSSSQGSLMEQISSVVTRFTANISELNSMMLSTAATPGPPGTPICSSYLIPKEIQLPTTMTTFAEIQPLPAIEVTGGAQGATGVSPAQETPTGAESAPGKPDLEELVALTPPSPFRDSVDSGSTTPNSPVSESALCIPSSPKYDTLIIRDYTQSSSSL

[4] = biological target: Metabotropic glutamate receptor 1 (Rattus norvegicus, UniProt P23385); assay: Metabotropic glutamate receptor 1 agonist activity as basal [3H]- IP formation in rat; assay type: functional
Metabotropic glutamate receptor 1, sequence (P23385 whole entry): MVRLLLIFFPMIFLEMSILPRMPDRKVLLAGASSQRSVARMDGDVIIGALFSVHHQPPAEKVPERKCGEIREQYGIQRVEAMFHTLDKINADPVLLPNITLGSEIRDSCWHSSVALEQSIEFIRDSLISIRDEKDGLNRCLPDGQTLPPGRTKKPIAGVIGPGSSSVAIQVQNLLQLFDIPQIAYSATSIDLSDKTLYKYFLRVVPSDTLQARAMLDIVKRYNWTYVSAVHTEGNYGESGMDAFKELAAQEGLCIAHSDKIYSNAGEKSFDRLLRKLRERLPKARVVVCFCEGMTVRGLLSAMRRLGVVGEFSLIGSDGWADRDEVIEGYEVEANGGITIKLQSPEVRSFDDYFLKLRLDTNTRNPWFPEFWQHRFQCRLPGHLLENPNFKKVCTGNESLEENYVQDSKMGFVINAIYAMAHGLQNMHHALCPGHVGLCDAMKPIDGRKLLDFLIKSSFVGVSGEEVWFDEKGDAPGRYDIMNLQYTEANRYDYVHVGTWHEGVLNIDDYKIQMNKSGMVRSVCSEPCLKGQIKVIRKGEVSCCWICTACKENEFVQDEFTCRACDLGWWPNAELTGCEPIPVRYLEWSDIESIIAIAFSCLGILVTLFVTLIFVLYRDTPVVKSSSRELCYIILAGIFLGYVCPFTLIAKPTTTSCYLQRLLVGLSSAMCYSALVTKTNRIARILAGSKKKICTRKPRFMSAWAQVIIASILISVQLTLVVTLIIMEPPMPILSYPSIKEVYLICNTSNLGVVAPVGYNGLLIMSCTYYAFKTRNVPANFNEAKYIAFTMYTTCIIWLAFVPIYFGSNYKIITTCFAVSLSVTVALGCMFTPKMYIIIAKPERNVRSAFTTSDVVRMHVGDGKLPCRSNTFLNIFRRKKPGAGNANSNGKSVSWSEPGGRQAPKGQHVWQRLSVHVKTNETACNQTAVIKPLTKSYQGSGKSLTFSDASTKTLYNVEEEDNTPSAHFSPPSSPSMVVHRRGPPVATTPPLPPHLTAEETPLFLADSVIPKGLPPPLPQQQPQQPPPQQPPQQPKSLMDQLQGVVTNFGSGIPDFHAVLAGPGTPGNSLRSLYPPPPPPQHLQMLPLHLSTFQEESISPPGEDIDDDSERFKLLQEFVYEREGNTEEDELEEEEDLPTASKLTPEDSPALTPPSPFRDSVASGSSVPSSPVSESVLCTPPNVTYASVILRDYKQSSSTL

[5] = biological target: T2, Metabotropic glutamate receptor 8 (Rattus norvegicus, UniProt P70579); assay: Metabotropic glutamate receptor 8 antagonist activity to influence forskolin stimulated c-AMP formation in rat non neuronal cells; assay type: functional, cell-based
T2 sequence (P70579 whole entry): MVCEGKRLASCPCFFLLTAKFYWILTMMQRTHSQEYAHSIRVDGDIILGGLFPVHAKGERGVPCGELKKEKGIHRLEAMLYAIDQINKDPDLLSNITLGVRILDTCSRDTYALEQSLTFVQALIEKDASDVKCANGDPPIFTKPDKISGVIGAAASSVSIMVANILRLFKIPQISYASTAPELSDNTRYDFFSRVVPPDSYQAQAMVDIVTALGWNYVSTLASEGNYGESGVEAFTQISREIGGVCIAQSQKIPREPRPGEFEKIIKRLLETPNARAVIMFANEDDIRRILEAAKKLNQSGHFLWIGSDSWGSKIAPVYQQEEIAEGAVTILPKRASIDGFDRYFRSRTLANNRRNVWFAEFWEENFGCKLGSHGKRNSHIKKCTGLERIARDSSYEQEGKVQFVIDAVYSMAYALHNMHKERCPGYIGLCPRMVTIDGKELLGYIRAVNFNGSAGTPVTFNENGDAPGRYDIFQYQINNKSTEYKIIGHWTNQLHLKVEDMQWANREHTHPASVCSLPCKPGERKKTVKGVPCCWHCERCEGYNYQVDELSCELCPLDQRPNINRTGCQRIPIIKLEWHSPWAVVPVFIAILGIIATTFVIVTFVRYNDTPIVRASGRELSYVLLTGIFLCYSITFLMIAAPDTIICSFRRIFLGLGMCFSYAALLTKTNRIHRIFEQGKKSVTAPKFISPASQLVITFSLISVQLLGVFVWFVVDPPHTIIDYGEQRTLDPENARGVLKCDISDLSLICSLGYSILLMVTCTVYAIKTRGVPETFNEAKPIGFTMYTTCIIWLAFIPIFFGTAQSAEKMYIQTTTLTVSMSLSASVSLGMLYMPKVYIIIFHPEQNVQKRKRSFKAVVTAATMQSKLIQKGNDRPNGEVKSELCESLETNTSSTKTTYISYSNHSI

[6] = biological target: T3, Metabotropic glutamate receptor 4 (Rattus norvegicus, UniProt P31423); assay: Metabotropic glutamate receptor 4 antagonist activity to influence forskolin stimulated c-AMP formation in rat non neuronal cells; assay type: functional, cell-based
[7] = biological target: T4, Metabotropic glutamate receptor 6 (Rattus norvegicus, UniProt P35349); assay: Metabotropic glutamate receptor 6 antagonist activity to influence forskolin stimulated c-AMP formation in rat non neuronal cells; assay type: functional, cell-based
[8] = biological target: T2, Metabotropic glutamate receptor 8; assay: Metabotropic glutamate receptor 8 agonist activity against forskolin stimulated c-AMP formation in rat non neuronal cells; assay type: functional, cell-based
[9] = biological target: Metabotropic glutamate receptor 2 (Rattus norvegicus, UniProt P31421); assay: Metabotropic glutamate receptor 2 agonist activity against forskolin stimulated c-AMP formation in rat non neuronal cells; assay type: functional, cell-based
Metabotropic glutamate receptor 2, sequence (P31421 whole entry): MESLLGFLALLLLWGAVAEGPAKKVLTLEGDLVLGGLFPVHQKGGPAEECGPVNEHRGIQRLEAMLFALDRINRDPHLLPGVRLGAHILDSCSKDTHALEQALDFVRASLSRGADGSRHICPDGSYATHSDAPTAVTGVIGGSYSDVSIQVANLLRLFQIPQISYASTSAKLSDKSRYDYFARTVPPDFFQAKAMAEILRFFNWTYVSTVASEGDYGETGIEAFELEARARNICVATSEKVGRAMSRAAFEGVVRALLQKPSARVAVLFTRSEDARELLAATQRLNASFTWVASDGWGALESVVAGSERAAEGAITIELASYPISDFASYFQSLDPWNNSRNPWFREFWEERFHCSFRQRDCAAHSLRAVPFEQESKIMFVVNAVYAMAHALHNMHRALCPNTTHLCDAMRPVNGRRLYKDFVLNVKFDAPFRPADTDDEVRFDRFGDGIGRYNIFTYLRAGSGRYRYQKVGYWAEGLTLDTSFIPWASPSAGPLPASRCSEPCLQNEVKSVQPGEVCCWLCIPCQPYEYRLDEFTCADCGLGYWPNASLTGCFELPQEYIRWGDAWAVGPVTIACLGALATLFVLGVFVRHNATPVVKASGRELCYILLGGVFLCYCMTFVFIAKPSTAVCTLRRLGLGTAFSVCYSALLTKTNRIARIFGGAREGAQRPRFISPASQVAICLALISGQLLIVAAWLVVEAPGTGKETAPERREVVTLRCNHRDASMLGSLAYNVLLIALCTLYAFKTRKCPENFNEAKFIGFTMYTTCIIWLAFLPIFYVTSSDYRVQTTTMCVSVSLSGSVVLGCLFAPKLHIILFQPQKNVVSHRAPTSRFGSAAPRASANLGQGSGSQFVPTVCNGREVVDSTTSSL

[10] = biological target: T4, Metabotropic glutamate receptor 6; assay: Metabotropic glutamate receptor 6 agonist activity to influence forskolin stimulated c-AMP formation in rat non neuronal cells; assay type: functional, cell-based
[11] = biological target: T1, Metabotropic glutamate receptor 7; assay: Metabotropic glutamate receptor 7 agonist activity to influence forskolin stimulated c-AMP formation in rat non neuronal cells; assay type: functional, cell-based
[12] = biological target: T3, Metabotropic glutamate receptor 4; assay: Metabotropic glutamate receptor 4 agonist activity to influence forskolin stimulated c-AMP formation in rat non neuronal cells; assay type: functional, cell-based

| pEC50 [2] | pEC50 [5] | pEC50 [6] | pEC50 [7] | Compound | pEC50 [1] | pEC50 [3] | pEC50 [4] | pEC50 [8] | pEC50 [9] | pEC50 [10] | pEC50 [11] | pEC50 [12] |
| --- | --- | --- | --- | --- | --- | --- | --- | --- | --- | --- | --- | --- |
| 4.40 | 4.49 | 4.64 | 4.40 | N[C@H](C(=O)O)C1[C@@H](C(=O)O)[C@@H]1C(=O)O (some centres undefined) | 6.70 | 3.41 | < 4.00 |  |  |  |  |  |
|  |  |  |  | N[C@H](C(=O)O)[C@H]1C[C@@H]1C(=O)O | 6.22 | 4.77 | 4.64 | 6.40 | 6.52 | 6.22 | 4.33 | 5.40 |
|  |  |  |  | N[C@H](C(=O)O)[C@H]1[C@@H](CC(=O)O)[C@@H]1C(=O)O |  | < 4.00 | < 4.00 |  | 7.00 |  |  |  |
|  |  |  |  | N[C@H](C(=O)O)[C@H]1[C@H](CC(=O)O)[C@@H]1C(=O)O |  | < 4.00 | < 4.00 |  | 6.52 |  |  |  |
|  |  |  |  | N[C@@H](CCP(=O)(O)O)C(=O)O | < 4.00 | < 4.00 | < 4.00 | 7.22 | 3.35 | 7.26 | 3.76 | 6.49 |
|  |  |  |  | C[C@H]1[C@H](C(=O)O)[C@H]1[C@H](N)C(=O)O | 7.42 | < 4.00 | < 4.00 | 5.88 | 8.10 | 5.92 | < 4.00 | < 4.00 |
|  |  |  |  | NC(C(=O)O)c1ccc(P(=O)(O)O)cc1 (racemic) | < 3.70 | < 3.30 | < 3.30 | 6.68 | < 3.52 | 5.33 | 3.73 | 5.28 |
|  |  |  |  | N[C@H](C(=O)O)c1ccc(C(=O)O)c(C(=O)O)c1 | < 4.00 | < 4.00 | 4.49 | 7.51 | < 4.00 | 5.44 | < 4.00 | 5.06 |
|  |  |  |  | N[C@H](C(=O)O)[C@@H]1[C@@H](C(=O)O)C1(F)F |  |  |  |  | 7.05 |  |  |  |
